Earlier results, collected in patent US20070111204A1, “Methods for detecting nucleic acid variations” (priority 2003, published 2007).

System: CGRP
Settings: marmoset, electrical stimulation of the trigeminal ganglion (Doods et al. 2000)

In the case of NCCCC[C@H](NC(=O)[C@@H](Cc1cc(Br)c(O)c(Br)c1)NC(=O)N1CCC(N2Cc3ccccc3NC2=O)CC1)C(=O)N1CCN(c2ccncc2)CC1 [BIBN4096BS], the “effect on increase of facial blood flow” value is given as “blocked”.
